Several values for one entry are separate records, joined by “and”; a condition that tells them apart may be missing. Equal entries are not always repeated.
System: Phage litmus

| SMILES | Color change of Phage litmus bands upon exposure | Red-green-blue (RGB) color differences G3 | Red-green-blue (RGB) color differences R1 | Red-green-blue (RGB) color differences R3 | Time in which all color matrices of the Phage litmus responded [s] | Red-green-blue (RGB) color differences G1 | Red-green-blue (RGB) color differences R4 |
| --- | --- | --- | --- | --- | --- | --- | --- |
| CCO [EtOH, ethanol] | immediately changed color | 3.32 and 2.87 and 2.98 | 1.22 and 1.81 and 1.06 | 2.54 and 1.97 and 2.26 | 30 |  |  |
| CCCCCC [Hexane, n-hexane] | immediately changed color |  |  | 0.69 and 0.99 and 0.53 | 30 |  |  |
| CCOCC [Ether, diethyl ether] | immediately changed color |  | 1.31 and 1.20 and 1.24 | 1.15 and 1.53 and 0.91 | 30 | 0.38 and 0.56 and 0.39 | 1.30 and 1.54 and 1.12 |
